Experiments:
PASK (Invitrogen) = molecular target: T1, PASK (Invitrogen) (Homo sapiens, UniProt Q96RG2); assay: PAS Kinase FRET Assay; assay type: biochemical; settings: PAS kinase TR-FRET assay (665 nm/615 nm); read-out: IC50 Kinase Domain
T1 construct: IC50 Kinase Domain; purchased Invitrogen
From the text: (§1) Biochemical Assay for hPASK Activity
The aim of the FRET assay is to determine the inhibition potential of test compounds on targeted kinase. This assay platform provides a homogenous screening method for measuring kinase activity by quantitating the amount of phospho-substrate in solution following a kinase reaction.
In the presence of kinase and ATP, the Ulight-peptide is phosphorylated and captured by an anti-phospho-substrate antibody, which brings the Eu chelate donor and Ulight acceptor dyes into close proximity. Upon excitation at 340 nm, the Eu chelate transfers its energy to the Ulight dye, resulting in a fluorescent light emission at 665 nm.
Titration of kinase at 1 mM ATP was achieved via the following protocol. After making serial three-fold dilutions of PASK (Invitrogen) in reaction buffer across the plate; 5 μl of kinase dilution and 5 μl substrate/ATP mix were added to the wells of the white Optiplate-384 (PerkinElmer). The contents of the plate were and incubated at RT for 1 h. The reaction was stopped by adding 5 μl of stop solution to each test well followed by mixing and incubation at RT for 10 minutes. 5 μl of detection mix (detection antibody diluted in detection buffer) was added; the contents of the plate were mixed and then incubated in the dark for 1 hour at RT. The signal was recorded at TR-FRET mode (665 nm/615 nm). The results were graphed to calculate the EC50.
Titration of ATP at the EC50 concentration of kinase to determine ATP Km,app. was performed using the following method. After making serial dilutions of ATP (Invitrogen), 5 μl of ATP dilution and 5 μl substrate/kinase mix were added to the wells of the white Optiplate-384 (PerkinElmer). The contents of the plate were and incubated at RT for 1 h. The reaction was stopped by adding 5 μl of stop solution to each test well followed by mixing and incubation at RT for 10 minutes. 5 μl of detection mix (detection antibody diluted in detection buffer) was added; the contents of the plate were mixed and then incubated in the dark for 1 hour at RT. The signal was recorded at TR-FRET mode (665 nm/615 nm). The results were graphed to calculate the EC50 as the ATP Km,app.
Compound screening was done via the following method. 10 mM stock solution of test compound in DMSO was prepared by dissolving test compound in DMSO at RT for 1 hour, and then sonicating at 100% output for 8 minutes. If compound is not soluble under this condition, it was diluted to 3 mM. Kinase reaction buffer was prepared containing 10 mM MgCl2, 50 mM HEPES, 1 mM EGTA, 0.01% TWEEN-20, 2 mM DTT. Serial dilutions of the test compounds were prepared at 4× final assay concentrations using Freedom EVO200® dispensing system as follows: 12×10^−5 M, 4×10^−5 M, 1.33×10^−5 M, 4.44×10^−6 M, 1.48×10^−6 M, 4.92×10^−7 M, 1.65×10^−7 M, […], 1.82×10^−8M, 6.09×10^−9, 2.03×10^−9 M. Test compounds (2.5 μl at 4× the final assay concentration) was added to wells using Freedom EVO200® dispensing system. As a positive control, 2.5 μl of positive compound was added to assay wells, and 2.5 μl of DMSO to assay wells as vehicle control. Kinase solution was prepared in reaction buffer at 2× final assay concentration. Kinase solution (5 μl) was added to each well of the assay plate. The substrate and ATP solution was prepared in kinase reaction buffer at 4× final assay concentration. The kinase reaction was started by adding 2.5 μl of substrate+ATP mix solution to each well of the assay plate. The plate is mixed on a plate shaker; then covered and allowed to react for 2 hours in the dark at 25° C. without shaking. The reaction was stopped by adding 5 μl of stop solution to each test well followed by mixing and incubation at RT for 10 minutes in the dark. 5 μl of detection mix (detection antibody diluted in detection buffer) was added; the contents of the plate were mixed and then incubated in the dark for 1 hour at RT. The signal was recorded at TR-FRET mode (665 nm/615 nm).

PASK = molecular target: T2, PASK (UniProt #Q96RG2; human recombinant N-terminal GST tagged construct, residues 879-1323) (Homo sapiens, UniProt Q96RG2); assay: PASK ATP Radiochemical Assay; assay type: biochemical; settings: 33P-ATP, Myelin Basic Protein substrate, read-out: IC50 Kinase Domain
T2 construct: N-terminal GST tagged construct, residues 879-1323; GST (N); host or cells: insect cells
Description: as §1
PASK ATP Radiochemical Assay
Purified PASK (UniProt #Q96RG2; human recombinant N-terminal GST tagged construct, residues 879-1323) from insect cells (final concentration 5 nM) is added to freshly prepared Base Reaction Buffer containing 20 mM HEPES (pH 7.5), 10 mM MgCl2, 1 mM EGTA, 0.02% Brij35, 0.02 mg/ml BSA, 0.1 mM Na3VO4, 2 mM DTT, 1% DMSO and Myelin Basic Protein (20 μM final). Test compounds in DMSO are then added and the mixture, followed by delivery of ^33P-ATP (specific activity 0.01 μCi/μl final) to initiate the reaction. The kinase reaction is incubated for 120 min at room temperature. The entire reaction mixture is washed through onto a P81 Phosphocellulose paper and washed three times for 10 minutes in 75 mM phosphoric acid and once in methanol prior to drying and scintillation counting.

T1 sequence (Q96RG2 999-1251 limits assumed): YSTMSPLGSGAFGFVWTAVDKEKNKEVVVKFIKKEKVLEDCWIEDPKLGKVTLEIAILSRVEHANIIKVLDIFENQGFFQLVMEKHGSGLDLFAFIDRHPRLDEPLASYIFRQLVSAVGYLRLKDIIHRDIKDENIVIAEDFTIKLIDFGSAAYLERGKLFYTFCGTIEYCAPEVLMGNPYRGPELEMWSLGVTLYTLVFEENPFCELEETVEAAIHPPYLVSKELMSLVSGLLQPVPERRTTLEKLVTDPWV
T2 sequence (Q96RG2 879-1323, stated change not applied): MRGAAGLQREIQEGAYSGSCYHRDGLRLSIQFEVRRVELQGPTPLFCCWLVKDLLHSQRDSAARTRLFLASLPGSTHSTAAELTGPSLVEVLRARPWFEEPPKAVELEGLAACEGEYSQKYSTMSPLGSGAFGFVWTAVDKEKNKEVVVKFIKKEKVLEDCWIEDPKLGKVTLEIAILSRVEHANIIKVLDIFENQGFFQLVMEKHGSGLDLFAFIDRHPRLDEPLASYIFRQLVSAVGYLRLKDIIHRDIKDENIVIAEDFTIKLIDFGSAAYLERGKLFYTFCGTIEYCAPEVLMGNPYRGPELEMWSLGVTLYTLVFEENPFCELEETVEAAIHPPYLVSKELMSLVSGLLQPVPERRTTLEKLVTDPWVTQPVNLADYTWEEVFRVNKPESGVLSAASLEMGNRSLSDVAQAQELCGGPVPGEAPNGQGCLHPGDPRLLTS

Row | Structure (SMILES) | IC50 (PASK (Invitrogen)) | IC50 (PASK)
1 | O=c1cc(-c2ccc(Cl)cn2)[nH]c2c(-c3ncco3)cnn12 [Example 113, 5-(5-chloropyridin-2-yl)-3-(1,3-oxazol-2-yl)-4H,7H-pyrazolo[1,5-a]pyrimidin-7-one] | > 10 µM | –
2 | CCc1noc2cc(-c3cc(=O)n4ncc(-c5ncco5)c4[nH]3)ccc12 [Example 120, 5-(3-Ethylbenzo[d]isoxazol-6-yl)-3-(oxazol-2-yl)pyrazolo[1,5-a]pyrimidin-7(4H)-one] | ≤ 10 µM | –
3 | Cc1coc(-c2cnn3c(=O)cc(-c4ccc5onc(C)c5c4)[nH]c23)n1 [Example 90, 5-(3-methylbenzo[d]isoxazol-5-yl)-3-(4-methyloxazol-2-yl)pyrazolo[1,5-a]pyrimidin-7(4H)-one] | ≤ 10 µM | –
4 | Cc1csc(-c2cnn3c(=O)cc(-c4ccc5c(cnn5C)c4)[nH]c23)n1 [Example 72, 5-(1-methyl-1H-indazol-5-yl)-3-(4-methylthiazol-2-yl)pyrazolo[1,5-a]pyrimidin-7(4H)-one] | ≤ 10 µM | –
5 | O=c1cc(-c2ccc3c(c2)OCO3)[nH]c2c(-c3ncco3)cnn12 [Example 1, 5-(2H-1,3-benzodioxol-5-yl)-3-(1,3-oxazol-2-yl)-4H,7H-pyrazolo[1,5-a]pyrimidin-7-one] | ≤ 10 µM | ≤ 10 µM
6 | Cc1cnc(-c2cnn3c(=O)cc(-c4ccc(Cl)c(OCC(F)(F)F)c4)[nH]c23)o1 [Example 37, 5-[4-chloro-3-(2,2,2-trifluoroethoxy)phenyl]-3-(5-methyloxazol-2-yl)-4H,7H-pyrazolo[1,5-a]pyrimidin-7-one] | ≤ 10 µM | –
7 | CCn1ncc2cc(-c3cc(=O)n4nc(C)c(-c5ncco5)c4[nH]3)ccc21 [Example 29, 5-(1-ethyl-1H-indazol-5-yl)-2-methyl-3-(oxazol-2-yl)-4H,7H-pyrazolo[1,5-a]pyrimidin-7-one] | ≤ 10 µM | –
8 | CCOc1cc(-c2cc(=O)n3ncc(-c4ncc(C)o4)c3[nH]2)ccc1F [Example 36, 5-(3-ethoxy-4-fluorophenyl)-3-(5-methyloxazol-2-yl)-4H,7H-pyrazolo[1,5-a]pyrimidin-7-one] | ≤ 10 µM | –
9 | COc1cc(-c2cc(=O)n3ncc(-c4cc(C)no4)c3[nH]2)ccc1Cl [Example 52, 5-(4-chloro-3-methoxyphenyl)-3-(3-methylisoxazol-5-yl)pyrazolo[1,5-a]pyrimidin-7(4H)-one] | ≤ 10 µM | –
10 | CCn1ncc2cc(-c3cc(=O)n4ncc(-c5nc(C)cs5)c4[nH]3)ccc21 [Example 25, 5-(1-ethyl-1H-indazol-5-yl)-3-(4-methyl-1,3-thiazol-2-yl)-4H,7H-pyrazolo[1,5-a]pyrimidin-7-one] | ≤ 10 µM | –
11 | CC(C)Oc1cc(-c2cc(=O)n3ncc(-c4ccnn4C)c3[nH]2)ccc1Cl [Example 76, 5-(4-chloro-3-isopropoxyphenyl)-3-(1-methyl-1H-pyrazol-5-yl)pyrazolo[1,5-a]pyrimidin-7(4H)-one] | ≤ 10 µM | –
12 | Cc1noc2cc(-c3cc(=O)n4ncc(C(N)=O)c4[nH]3)ccc12 [Example 122, 5-(3-methylbenzo[d]isoxazol-6-yl)-7-oxo-4,7-dihydropyrazolo[1,5-a]pyrimidine-3-carboxamide] | ≤ 10 µM | –
13 | Cc1cnc(-c2cnn3c(=O)cc(-c4ccc(Cl)cc4)[nH]c23)s1 [Example 106, 5-(4-Chlorophenyl)-3-(5-methylthiazol-2-yl)pyrazolo[1,5-a]pyrimidin-7(4H)-one] | ≤ 10 µM | –
14 | CCn1ncc2cc(-c3cc(=O)n4ncc(-c5nc6ccccc6o5)c4[nH]3)ccc21 [Example 33, 3-(benzo[d]oxazol-2-yl)-5-(1-ethyl-1H-indazol-5-yl)pyrazolo[1,5-a]pyrimidin-7(4H)-one] | ≤ 10 µM | –
15 | CCn1ncc2cc(-c3cc(=O)n4ncc(-c5ccnn5C)c4[nH]3)ccc21 [Example 53, 5-(1-ethyl-1H-indazol-5-yl)-3-(1-methyl-1H-pyrazol-5-yl)pyrazolo[1,5-a]pyrimidin-7(4H)-one] | ≤ 10 µM | –
16 | CCc1cnc(-c2cnn3c(=O)cc(-c4ccc5c(c4)OCO5)[nH]c23)o1 [Example 14, 5-(2H-1,3-benzodioxol-5-yl)-3-(5-ethyl-1,3-oxazol-2-yl)-4H,7H-pyrazolo[1,5-a]pyrimidin-7-one] | ≤ 10 µM | –
17 | COc1cc(-c2cc(=O)n3ncc(-c4nc5ccccc5o4)c3[nH]2)ccc1Cl [Example 45, 3-(benzo[d]oxazol-2-yl)-5-(4-chloro-3-methoxyphenyl)pyrazolo[1,5-a]pyrimidin-7(4H)-one] | ≤ 10 µM | –
18 | Cc1noc2cc(-c3cc(=O)n4ncc(-c5ncco5)c4[nH]3)ccc12 [Example 118, 5-(3-methylbenzo[d]isoxazol-6-yl)-3-(oxazol-2-yl)pyrazolo[1,5-a]pyrimidin-7(4H)-one] | ≤ 10 µM | –
19 | CNC(=O)Cc1cnn2c(=O)cc(-c3ccc(Cl)c(OC)c3)[nH]c12 [Example 81, 2-(5-(4-chloro-3-methoxyphenyl)-7-oxo-4,7-dihydropyrazolo[1,5-a]pyrimidin-3-yl)-N-methylacetamide] | ≤ 10 µM | –
20 | COc1cc(-c2cc(=O)n3ncc(-c4nccs4)c3[nH]2)ccc1Cl [Example 39, 5-(4-chloro-3-methoxyphenyl)-3-(thiazol-2-yl)-4H,7H-pyrazolo[1,5-a]pyrimidin-7-one] | ≤ 10 µM | –
21 | COc1cc(-c2cc(=O)n3ncc(-c4nc5ccccc5s4)c3[nH]2)ccc1Cl [Example 41, 3-(benzo[d]thiazol-2-yl)-5-(4-chloro-3-methoxyphenyl)pyrazolo[1,5-a]pyrimidin-7(4H)-one] | ≤ 10 µM | –
22 | N#Cc1cc(-c2cc(=O)n3ncc(-c4ncco4)c3[nH]2)ccc1O [Example 75, 2-hydroxy-5-(3-(oxazol-2-yl)-7-oxo-4,7-dihydropyrazolo[1,5-a]pyrimidin-5-yl)benzonitrile] | ≤ 10 µM | –
23 | O=c1cc(-c2ccc(Cl)c(Cl)c2)[nH]c2c(-c3noc4ccccc34)cnn12 [Example 60, 3-(benzo[d]isoxazol-3-yl)-5-(3,4-dichlorophenyl)pyrazolo[1,5-a]pyrimidin-7(4H)-one] | ≤ 10 µM | –
24 | CCc1nn2c(=O)cc(-c3ccc(Cl)c(OC)c3)[nH]c2c1-c1nc(C)no1 [Example 117, 5-(4-chloro-3-methoxyphenyl)-2-ethyl-3-(3-methyl-1,2,4-oxadiazol-5-yl)-4H,7H-pyrazolo[1,5-a]pyrimidin-7-one] | ≤ 10 µM | –
25 | CCn1ncc2cc(-c3cc(=O)n4ncc(-c5nc6ccccc6s5)c4[nH]3)ccc21 [Example 40, 3-(benzo[d]thiazol-2-yl)-5-(1-ethyl-1H-indazol-5-yl)pyrazolo[1,5-a]pyrimidin-7(4H)-one] | ≤ 10 µM | –

Source: US10392389B2, “Heterocyclic compounds for the inhibition of PASK” (BioEnergenix, LLC, priority 2012, dated 2019)
